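A five-concentration, 48-hour dose response in 96-well plates underlies each endpoint, interpolated linearly between surrounding concentrations. At the TGI there is no net growth.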
Experiments:
Assay in all cases: NCI anticancer screen, dose series, 48 h
[1] = tested on: 786-0 renal
[2] = tested on: A498 renal
[3] = tested on: ACHN renal
[4] = tested on: CCRF-CEM leukemia
[5] = tested on: COLO 205 colon
[6] = tested on: DU-145 prostate
[7] = tested on: HCT-116 colon
[8] = tested on: HS 578T breast
[9] = tested on: LOX IMVI melanoma
[10] = tested on: MDA-N
[11] = tested on: NCI-H23 lung
[12] = tested on: NCI-H460 lung
[13] = tested on: NCI-H522 lung
[14] = tested on: NCI/ADR-RES ovarian
[15] = tested on: RXF 393 renal
[16] = tested on: SF-268 CNS
[17] = tested on: SF-295 CNS
[18] = tested on: SK-OV-3 ovarian
[19] = tested on: TK-10 renal
[20] = tested on: UO-31 renal

Row | Compound | TGI [1] [µM] | TGI [2] [µM] | TGI [3] [µM] | TGI [4] [µM] | TGI [5] [µM] | TGI [6] [µM] | TGI [7] [µM] | TGI [8] [µM] | TGI [9] [µM] | TGI [10] [µM] | TGI [11] [µM] | TGI [12] [µM] | TGI [13] [µM] | TGI [14] [µM] | TGI [15] [µM] | TGI [16] [µM] | TGI [17] [µM] | TGI [18] [µM] | TGI [19] [µM] | TGI [20] [µM]
1 | CN(C)c1ccc(-c2c(C#N)c(N)[nH]c(=S)c2C#N)cc1 | > 100 | 96.2 | > 100 | > 100 | > 100 | > 100 | > 100 | 35.7 | > 100 | > 100 | > 100 | > 100 | > 100 | > 100 | > 100 | > 100 | > 100 | > 100 | > 100 | > 100
2 | COc1ccc(Br)c2c1CC(C(=O)O)CC2 (stereo not given) | > 100 | > 100 | > 100 | > 100 | > 100 | > 100 | > 100 | > 100 | > 100 | > 100 | > 100 | > 100 | > 100 | > 100 | > 100 | > 100 | > 100 | > 100 | > 100 | > 100
3 | Oc1ccccc1/C=N/Nc1nnc2c3ccccc3c3ccccc3c2n1 | > 100 | > 100 | > 100 | > 100 | > 100 | > 100 | > 100 | > 100 | > 100 | > 100 | > 100 | > 100 | 54.1 | > 100 | > 100 | > 100 | > 100 | > 100 | > 100 | > 100
4 | CSc1nc2ccccc2c(=O)n1/N=C1\C(=O)N(CN2CCCCC2)c2ccc(Cl)cc21 | 69 | 96.6 | > 100 | > 100 | 36 | 42.7 | > 100 | > 100 | 28.8 | > 100 | > 100 | > 100 | 37.3 | > 100 | 33.4 | > 100 | > 100 | 94.7 | > 100 | > 100
5 | COc1ccc(/C=C2/C(C)=NN(c3cccc(Cl)c3)/C2=N/c2nc3ccccc3s2)cc1 | 38.1 | 62.4 | 42.2 | 92.7 | – | 39.4 | 33.9 | 66.1 | 33.4 | 41.6 | 34.6 | 43.2 | 35.2 | 71.6 | 26.8 | 66.9 | 49.5 | 63.7 | 68.8 | 44.1
6 | CC1(C)C(=O)N(O)C(C)(C)N1O | > 10 | > 10 | > 10 | > 10 | > 10 | > 10 | > 10 | > 10 | > 10 | > 10 | > 10 | > 10 | > 10 | > 10 | > 10 | > 10 | > 10 | > 10 | > 10 | –
7 | COC(=O)[C@H](Cc1ccccc1)NC(=O)NCCN(CCNC(=O)N[C@@H](Cc1ccccc1)C(=O)OC)C(=O)N[C@@H](Cc1ccccc1)C(=O)OC | 34.1 | > 82.7 | 51.6 | – | 40.9 | 41.6 | 35.8 | 45.3 | 76.3 | 32.9 | 36.1 | 34.8 | 29.6 | > 100 | 31.9 | 31.5 | 35.3 | > 60.8 | 37.3 | 45.5
8 | Fc1cc(C2=C[C@H](c3ccc(Cl)cc3)NC(=S)N2)c(Cl)cc1Cl | > 100 | 89.6 | > 100 | > 100 | > 100 | > 100 | > 100 | > 100 | > 100 | > 100 | > 100 | > 100 | > 100 | > 100 | > 100 | > 100 | > 100 | > 100 | > 100 | > 100
9 | C/C(=N\N)C(CN(C)C)C(c1ccccc1)c1c(O)c2ccccc2oc1=O (stereo not given) | > 100 | > 100 | > 100 | > 100 | > 100 | > 100 | > 100 | > 100 | > 100 | > 100 | > 100 | > 100 | > 100 | > 100 | > 100 | > 100 | > 100 | > 100 | > 100 | > 100
10 | CC1=NC(=O)C(C)(c2ccccc2)N1CCc1ccccc1 (stereo not given) | > 100 | > 100 | > 100 | > 100 | > 100 | > 100 | > 100 | > 100 | > 100 | > 100 | > 100 | – | > 100 | > 100 | > 100 | > 100 | > 100 | > 100 | > 100 | > 100
11 | CC(C)=CCOc1cc(NC(=S)c2ccoc2C)ccc1Cl | > 100 | > 100 | > 100 | > 100 | > 100 | > 100 | > 100 | > 100 | > 100 | > 100 | > 100 | > 100 | > 100 | > 100 | > 100 | > 100 | > 100 | > 100 | > 100 | > 100
12 | CCOC(=O)/C(O)=C(/C=N\C(=S)Nc1ccccc1Cl)C(=O)OCC | > 100 | > 100 | > 100 | > 100 | > 100 | > 100 | > 100 | > 100 | > 100 | > 100 | > 100 | > 100 | > 100 | > 100 | > 100 | > 100 | > 100 | > 100 | – | > 100
